ChEMBL document CHEMBL5344411, “Phenotypic screening-based drug discovery of furan-2-carboxylic acid derivatives for the amelioration of type 2 diabetes mellitus (T2DM)” (Eur J Med Chem, 2023)
Calls of active or inactive are those of the source. No cut-off for these calls is given here.

Key:
Hepatocyte [1] = assay: Inhibition of gluconeogenesis in Sprague-Dawley rat hepatocytes at 10 uM incubated for 1.5 hrs followed by sodium pyruvate and sodium lactate addition and measured after 4 hrs by colorimetric analysis relative to control; type: functional; settings: time 5.5 hrs
Hepatocyte [2] = assay: Inhibition of gluconeogenesis in Sprague-Dawley rat hepatocytes at 0.3 uM incubated for 1.5 hrs followed by sodium pyruvate and sodium lactate addition and measured after 4 hrs by colorimetric analysis relative to control; type: functional; settings: time 5.5 hrs
Hepatocyte [3] = assay: Inhibition of gluconeogenesis in Sprague-Dawley rat hepatocytes at 1 uM incubated for 1.5 hrs followed by sodium pyruvate and sodium lactate addition and measured after 4 hrs by colorimetric analysis relative to control; type: functional; settings: time 5.5 hrs
Hepatocyte [4] = assay: Inhibition of gluconeogenesis in Sprague-Dawley rat hepatocytes at 3 uM incubated for 1.5 hrs followed by sodium pyruvate and sodium lactate addition and measured after 4 hrs by colorimetric analysis relative to control; type: functional; settings: time 5.5 hrs
Mus musculus [5] = assay: Inhibition of gluconeogenesis in CD-1 mouse assessed as decrease in blood glucose level at 50 mg/kg administered via gavage at 1 hr prior to pyruvate sodium challenge and measured for 2 hrs by pyruvate tolerance test; type: functional, organism-based; settings: time 3.0 hrs
Mus musculus [6] = assay: Inhibition of gluconeogenesis in CD-1 mouse assessed as decrease in blood glucose level at 25 mg/kg administered via gavage at 1 hr prior to pyruvate sodium challenge and measured for 2 hrs by pyruvate tolerance test; type: functional, organism-based; settings: time 3.0 hrs
[7] = Half life in CD-1 mouse at 1 mg/kg, iv by LC-MS/MS analysis; type: ADME, organism-based; settings: in vivo
[8] = AUC(last) in CD-1 mouse at 1 mg/kg, iv by LC-MS/MS analysis; type: ADME, organism-based; parameters: dose 1 mg/kg, route iv; settings: in vivo
[9] = Observed AUCinfinity in CD-1 mouse at 1 mg/kg, iv by LC-MS/MS analysis; type: ADME, organism-based; parameters: dose 1 mg/kg, route iv; settings: in vivo
[10] = Observed clearance in CD-1 mouse at 1 mg/kg, iv by LC-MS/MS analysis; type: ADME, organism-based; settings: in vivo
[11] = Observed MRTinfinity in CD-1 mouse at 1 mg/kg, iv by LC-MS/MS analysis; type: ADME, organism-based; settings: in vivo
[12] = Observed volume of distribution at steady state in CD-1 mouse at 1 mg/kg, iv by LC-MS/MS analysis; type: ADME, organism-based; settings: in vivo, read-out: Vdss
[13] = Half life in CD-1 mouse at 1 mg/kg, po by LC-MS/MS analysis; type: ADME, organism-based; settings: in vivo
[14] = Tmax in CD-1 mouse at 1 mg/kg, po by LC-MS/MS analysis; type: ADME, organism-based; settings: in vivo
[15] = Cmax in CD-1 mouse at 1 mg/kg, po by LC-MS/MS analysis; type: ADME, organism-based; parameters: dose 1 mg/kg, route po; settings: in vivo
[16] = AUC(last) in CD-1 mouse at 1 mg/kg, po by LC-MS/MS analysis; type: ADME, organism-based; parameters: dose 1 mg/kg, route po; settings: in vivo
[17] = Observed AUCinfinity in CD-1 mouse at 1 mg/kg, po by LC-MS/MS analysis; type: ADME, organism-based; parameters: dose 1 mg/kg, route po; settings: in vivo
[18] = Observed MRTinfinity in CD-1 mouse at 1 mg/kg, po by LC-MS/MS analysis; type: ADME, organism-based; settings: in vivo
[19] = Oral bioavailability in CD-1 mouse at 1 mg/kg by LC-MS/MS analysis; type: ADME, organism-based; settings: in vivo
[20] = Half life in CD-1 mouse at 3 mg/kg, po by LC-MS/MS analysis; type: ADME, organism-based; settings: in vivo
[21] = Tmax in CD-1 mouse at 3 mg/kg, po by LC-MS/MS analysis; type: ADME, organism-based; settings: in vivo
[22] = Cmax in CD-1 mouse at 3 mg/kg, po by LC-MS/MS analysis; type: ADME, organism-based; parameters: dose 3 mg/kg, route po; settings: in vivo
[23] = AUC(last) in CD-1 mouse at 3 mg/kg, po by LC-MS/MS analysis; type: ADME, organism-based; parameters: dose 3 mg/kg, route po; settings: in vivo
[24] = Observed AUCinfinity in CD-1 mouse at 3 mg/kg, po by LC-MS/MS analysis; type: ADME, organism-based; parameters: dose 3 mg/kg, route po; settings: in vivo
[25] = Observed MRTinfinity in CD-1 mouse at 3 mg/kg, po by LC-MS/MS analysis; type: ADME, organism-based; settings: in vivo
[26] = Oral bioavailability in CD-1 mouse at 3 mg/kg by LC-MS/MS analysis; type: ADME, organism-based; settings: in vivo
[27] = Half life in CD-1 mouse at 10 mg/kg, po by LC-MS/MS analysis; type: ADME, organism-based; settings: in vivo
[28] = Tmax in CD-1 mouse at 10 mg/kg, po by LC-MS/MS analysis; type: ADME, organism-based; settings: in vivo
[29] = Cmax in CD-1 mouse at 10 mg/kg, po by LC-MS/MS analysis; type: ADME, organism-based; parameters: dose 10 mg/kg, route po; settings: in vivo
[30] = AUC(last) in CD-1 mouse at 10 mg/kg, po by LC-MS/MS analysis; type: ADME, organism-based; parameters: dose 10 mg/kg, route po; settings: in vivo
[31] = Observed AUCinfinity in CD-1 mouse at 10 mg/kg, po by LC-MS/MS analysis; type: ADME, organism-based; parameters: dose 10 mg/kg, route po; settings: in vivo
[32] = Observed MRTinfinity in CD-1 mouse at 10 mg/kg, po by LC-MS/MS analysis; type: ADME, organism-based; settings: in vivo
[33] = Oral bioavailability in CD-1 mouse at 10 mg/kg by LC-MS/MS analysis; type: ADME, organism-based; settings: in vivo
[34] = Half life in CD-1 mouse at 30 mg/kg, po by LC-MS/MS analysis; type: ADME, organism-based; settings: in vivo
[35] = Tmax in CD-1 mouse at 30 mg/kg, po by LC-MS/MS analysis; type: ADME, organism-based; settings: in vivo
[36] = Cmax in CD-1 mouse at 30 mg/kg, po by LC-MS/MS analysis; type: ADME, organism-based; parameters: dose 30 mg/kg, route po; settings: in vivo
[37] = AUC(last) in CD-1 mouse at 30 mg/kg, po by LC-MS/MS analysis; type: ADME, organism-based; parameters: dose 30 mg/kg, route po; settings: in vivo
[38] = Observed AUCinfinity in CD-1 mouse at 30 mg/kg, po by LC-MS/MS analysis; type: ADME, organism-based; parameters: dose 30 mg/kg, route po; settings: in vivo
[39] = Observed MRTinfinity in CD-1 mouse at 30 mg/kg, po by LC-MS/MS analysis; type: ADME, organism-based; settings: in vivo
[40] = Oral bioavailability in CD-1 mouse at 30 mg/kg by LC-MS/MS analysis; type: ADME, organism-based; settings: in vivo
Mus musculus [41] = assay: Antihyperglycemic activity in diabetic ob/ob mouse assessed as reduction in non-fasting blood glucose level at 5 mg/kg administered via gavage qd for 24 days and measured on day 24; type: functional; settings: po, 576 h, time 24 day
Mus musculus [42] = assay: Antihyperglycemic activity in diabetic ob/ob mouse assessed as reduction in fasting blood glucose level at 5 mg/kg administered via gavage qd for 24 days and measured on day 24; type: functional; settings: po, 576 h, time 24 day
[43] = Toxicity in diabetic ob/ob mouse assessed as effect on body weight at 5 mg/kg administered via gavage qd for 24 days; type: organism-based; settings: in vivo, po, 576 h, time 24 day
[44] = Toxicity in diabetic ob/ob mouse assessed as effect on daily food intake at 5 mg/kg administered via gavage qd for 24 days; type: organism-based; settings: in vivo, po, 576 h, time 24 day

CNC(=O)Cc1ccc(OCc2ccc(C(=O)O)o2)c(OC)c1
fold change (FC) (Hepatocyte [1]): 1.08

COc1cc(/C=C/C(=O)N(C)C)ccc1OCc1ccc(C(=O)O)o1
fold change (FC) (Hepatocyte [1]): 0.77

CCCc1ccc(OCc2ccc(C(=O)O)o2)c(NC(C)=O)c1
fold change (FC) (Hepatocyte [1]): 0.95

C=CCc1ccc(OCc2ccc(C(=O)O)o2)cc1
fold change (FC) (Hepatocyte [1]): 0.6

C=CCc1ccc(OCc2ccc(C(=O)NCc3ccccc3)o2)c(OC)c1
fold change (FC) (Hepatocyte [1]): 0.97

C=CCc1cccc(OC)c1OCc1ccc(C(=O)O)o1
fold change (FC) (Hepatocyte [1]): 0.78

CCCc1ccc(OCc2ccc(C(=O)O)o2)cc1OC
fold change (FC) (Hepatocyte [1]): 0.03 | fold change (FC) (Hepatocyte [2]): 0.75 | fold change (FC) (Hepatocyte [3]): 0.64 | fold change (FC) (Hepatocyte [4]): 0.16 | inhibition (Mus musculus [5]): Active | inhibition (Mus musculus [6]): Active | half-life [7]: 0.828 h | AUC(0-t) [8]: 1220 ng·h/mL | AUC(0-inf) [9]: 1250 ng·h/mL | clearance [10]: 13.5 mL/min/kg | MRT inf [11]: 0.798 h | Vd [12]: 0.65 L/kg | half-life [13]: 1.8 h | Tmax [14]: 0.25 h | Cmax [15]: 547 ng/mL | AUC(0-t) [16]: 678 ng·h/mL | AUC(0-inf) [17]: 709 ng·h/mL | MRT inf [18]: 2.07 h | bioavailability [19]: 55.7% | half-life [20]: 2.26 h | Tmax [21]: 0.25 h | Cmax [22]: 1460 ng/mL | AUC(0-t) [23]: 2430 ng·h/mL | AUC(0-inf) [24]: 2480 ng·h/mL | MRT inf [25]: 2.74 h | bioavailability [26]: 66.7% | half-life [27]: 3.12 h | Tmax [28]: 0.25 h | Cmax [29]: 7580 ng/mL | AUC(0-t) [30]: 9590 ng·h/mL | AUC(0-inf) [31]: 9620 ng·h/mL | MRT inf [32]: 2.31 h | bioavailability [33]: 78.9% | half-life [34]: 3.15 h | Tmax [35]: 0.25 h | Cmax [36]: 41000 ng/mL | AUC(0-t) [37]: 52700 ng·h/mL | AUC(0-inf) [38]: 52800 ng·h/mL | MRT inf [39]: 1.7 h | bioavailability [40]: 144% | inhibition in vivo at 5 mg/kg (Mus musculus [41]): 34.9% | inhibition in vivo at 5 mg/kg (Mus musculus [42]): 40.5% | Activity [43]: Non-Toxic | Activity [44]: Non-Toxic

C=CCc1ccc(OCc2ncc(C(=O)O)s2)c(OC)c1
fold change (FC) (Hepatocyte [1]): 1.33

CCCc1ccc(OC)c(OCc2ccc(C(=O)O)o2)c1
fold change (FC) (Hepatocyte [1]): 1.18

COc1cc(CCC(=O)N(C)C)ccc1OCc1ccc(C(=O)O)o1
fold change (FC) (Hepatocyte [1]): 0.9

CCCc1ccc(OCc2ccc(C(=O)O)o2)c(OCC)c1
fold change (FC) (Hepatocyte [1]): 0.77

C=CCc1ccc(OCc2cccc(C(=O)O)c2)c(OC)c1
fold change (FC) (Hepatocyte [1]): 1.06

C=CCc1ccc(OCc2ccc(C(=O)NCCO)o2)c(OC)c1
fold change (FC) (Hepatocyte [1]): 0.82

CCCc1ccc(OCc2ccc(C(=O)O)o2)c(OCC2CC2)c1
fold change (FC) (Hepatocyte [1]): 1.16

C=CCc1ccc(OCc2ccc(C(=O)N3CCN(C)CC3)o2)c(OC)c1
fold change (FC) (Hepatocyte [1]): 0.98

COc1ccccc1OCc1ccc(C(=O)O)o1
fold change (FC) (Hepatocyte [1]): 0.99

C=CCc1ccc(OCc2ccc(C(=O)Nc3cccc(C)c3)o2)c(OC)c1
fold change (FC) (Hepatocyte [1]): 0.83

CCC(=O)c1ccc(OCc2ccc(C(=O)O)o2)c(OC)c1
fold change (FC) (Hepatocyte [1]): 0.79
